Experimental data taken from patent US20180057505A1, “BICYCLIC HETEROARYL COMPOUNDS USEFUL AS INHIBITORS OF THE PAR-2 SIGNALING PATHWAY” (VERTEX PHARMACEUTICALS INCORPORATED, priority 2015, published 2018).

Columns and labels:
Format in all cases: cell-based
PAR2 (HT-29 cells) [1] = molecular target: T1, PAR2 (HT-29 cells) (Homo sapiens, UniProt P55085); experiment: Ca FLIPR TETRA assay, ANTAGONIST mode, activator 8 μM SLIGKV; details: HT-29 cells, activator 8 μM SLIGKV
T1 construct: host or cells: HT-29
T1 sequence (P55085 26-397): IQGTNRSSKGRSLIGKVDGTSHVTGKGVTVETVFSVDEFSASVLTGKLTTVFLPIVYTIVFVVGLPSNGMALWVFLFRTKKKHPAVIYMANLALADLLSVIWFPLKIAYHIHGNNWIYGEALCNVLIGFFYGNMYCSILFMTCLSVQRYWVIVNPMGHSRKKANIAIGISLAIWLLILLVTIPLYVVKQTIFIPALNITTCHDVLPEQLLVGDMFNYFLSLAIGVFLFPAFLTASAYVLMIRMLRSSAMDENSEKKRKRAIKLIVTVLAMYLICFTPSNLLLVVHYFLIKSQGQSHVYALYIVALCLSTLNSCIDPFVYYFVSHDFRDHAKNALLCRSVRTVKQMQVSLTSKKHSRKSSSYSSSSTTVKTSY
Summary of the method: (§1)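 HT-29 cells plated overnight at 37 °C in 1% FBS/McCoy's, loaded with calcium 5 dye (45 min 37 °C, 15 min r.t.), then preincubated with compounds 30 min at r.t. before a fixed activator challenge. Intracellular Ca2+ read by FLIPR Tetra; a first read checks compound-alone activation.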

PAR2 (HT-29 cells) [2] = molecular target: T1, PAR2 (HT-29 cells); experiment: Ca FLIPR TETRA assay, ANTAGONIST mode, activator 3.1 U/mL trypsin; details: HT-29 cells, activator 3.1 U/mL trypsin
Summary of the method: as §1

[3] = tested on: Thrombin-stimulated Ca2+ response in HT-29 cells; experiment: Ca FLIPR TETRA assay, ANTAGONIST mode, activator 1 U/mL Thrombin; details: HT-29 cells, activator 1 U/mL Thrombin
Summary of the method: as §1

[4] = tested on: UTP-stimulated Ca2+ response in HT-29 cells; experiment: Ca FLIPR TETRA assay, ANTAGONIST mode, activator 0.6 μM UTP; details: HT-29 cells, activator 0.6 μM UTP
Summary of the method: as §1

[5] = Method A: maximal concentration of antagonist 0.1, 1 or 2 μM
[6] = maximal antagonist concentration per Method (A: 0.1, 1 or 2 μM; B: 50 μM)

| Compound | IC50 (PAR2 (HT-29 cells) [1]; [5]) [µM] | IC50 (PAR2 (HT-29 cells) [2]; [5]) [µM] | IC50 ([3]; Homo sapiens) [µM] | IC50 ([4]; Homo sapiens) [µM] | IC50 (PAR2 (HT-29 cells) [1]; [6]) [µM] | IC50 (PAR2 (HT-29 cells) [2]; [6]) [µM] | IC50 [3] [µM] | IC50 [4] [µM] |
| --- | --- | --- | --- | --- | --- | --- | --- | --- |
| CC(C)(C)c1cc(-c2ccc(Cl)c(F)c2)nc2cc(C(=O)N3CCN(C(=O)[C@H]4CCS(=O)(=O)N4)CC3(C)C)oc12 [Example I-473] | 0.018 | 0.0277 | > 2 | > 2 | – | – | – | – |
| CC(C)(C)c1cc(-c2ccc(F)cc2)nc2cc(C(=O)N3CCN(C(=O)[C@H]4C[C@@H]4C(=O)O)CC3(C)C)oc12 [Example I-197] | – | – | > 1 | > 1 | 0.048 | 0.076 | – | – |
| CC(C)(C)c1cc(-c2ccc(Cl)c(F)c2)nc2cc(C(=O)N3CCC(N)CC3(C)C)oc12 (stereo not shown) [Example I-548] | 0.69 | 0.64 | > 2 | 1.8 | – | – | – | – |
| CC(C)(C)c1cc(-c2ccc(Cl)c(F)c2)nc2cc(C(=O)N3CCC(CC(=O)NS(=O)(=O)C(F)(F)F)CC3(C)C)oc12 (stereo not shown) [Example I-433] | 0.0027 | 0.0034 | > 2 | > 2 | – | – | – | – |
| CC(C)(C)OC(=O)N1CCN(C(=O)c2cc3nc(-c4ccc(F)cc4)cc(Cl)c3o2)C(C)(C)C1 [Example I-2] | – | – | > 50 | > 50 | 0.022 | 0.029 | – | – |
| CC(C)(C)c1cc(-c2ccc(Cl)cc2)nc2cc(C(=O)N3CCN(c4ncccn4)CC3(C)C)oc12 [Example I-404] | 0.025 | 0.016 | > 2 | > 2 | – | – | – | – |
| COCCN1CCN(C(=O)c2cc3nc(-c4ccc(F)cc4)cc(C(C)(C)C)c3o2)C(C)(C)C1=O [Example I-210] | – | – | > 1.5 | > 1.5 | 0.002 | 0.003 | – | – |
| CC(C)(C)c1cc(C2CC3(CCC3)C2)nc2cc(C(=O)N3CCN(C(=O)[C@@H]4COCCN4)CC3(C)C)oc12 [Example I-447] | 0.46 | 0.59 | > 2 | > 2 | – | – | – | – |
| CC(C)(C)c1cc(-c2ccc(Cl)c(F)c2)nc2cc(C(=O)N3CCN(c4ccc(-c5nnn[nH]5)cn4)CC3(C)C)oc12 [Example I-529] | 0.001 | 0.0012 | > 2 | > 2 | – | – | – | – |
| CC(C)(C)c1cc(-c2ccc(Cl)cc2)nc2cc(C(=O)N3CCN(C(=O)CC4(C(=O)O)CCOCC4)CC3(C)C)oc12 [Example I-499] | 0.0036 | 0.005 | > 2 | > 2 | – | – | – | – |
| Cc1cnc(N2CCN(C(=O)c3cc4nc(-c5ccc(Cl)cc5)cc(C(C)(C)C)c4o3)C(C)(C)C2)cn1 [Example I-264] | – | – | > 2 | > 2 | 0.015 | 0.018 | – | – |
| CC1(C)CCC(c2cc(C(C)(C)C)c3oc(C(=O)N4CCN(C(=O)CC5(C(=O)O)CCC5)CC4(C)C)cc3n2)CC1 [Example I-338] | 0.0003 | 0.0005 | > 2 | > 2 | – | – | – | – |
| Cc1nccnc1N1CCN(C(=O)c2cc3nc(-c4ccc(Cl)cc4)cc(C(C)(C)C)c3o2)C(C)(C)C1 [Example I-266] | – | – | > 2 | > 2 | 0.036 | 0.033 | – | – |
| CC(C)(C)c1cc(C2CCC(F)(F)CC2)nc2cc(C(=O)N3CCN(C(=O)c4ncccn4)CC3(C)C)oc12 [Example I-231] | – | – | > 2 | > 2 | 0.084 | 0.16 | – | – |
| Cc1n[nH]cc1N1CCN(C(=O)c2cc3nc(-c4ccc(F)cc4)cc(C(C)(C)C)c3o2)C(C)(C)C1=O [Example I-250] | – | – | > 2 | > 2 | 0.015 | 0.051 | – | – |
| CC(C)c1cc(-c2ccc(F)cc2)nc2cc(C(=O)N3CCN(C(=O)c4ccon4)CC3(C)C)oc12 [Example I-73] | – | – | 8.5 | 17 | 0.0024 | 0.0042 | – | – |

| Compound | IC50 (PAR2 (HT-29 cells) [1]; [5]) [µM] | IC50 (PAR2 (HT-29 cells) [2]; [5]) [µM] | IC50 ([3]; Homo sapiens) [µM] | IC50 ([4]; Homo sapiens) [µM] | IC50 (PAR2 (HT-29 cells) [1]; [6]) [µM] | IC50 (PAR2 (HT-29 cells) [2]; [6]) [µM] | IC50 [3] [µM] | IC50 [4] [µM] |
| --- | --- | --- | --- | --- | --- | --- | --- | --- |
| CC(C)c1cc(-c2ccc(F)cc2)nc2cc(C(=O)N3CCN(C(=O)c4ccn[nH]4)CC3(C)C)oc12 [Example I-65] | – | – | 2.7 | 2.8 | 0.01 | 0.016 | – | – |
| CC(C)(C)c1cc(-c2ccc(Cl)cc2)nc2cc(C(=O)N3CCN(c4cccc(C(=O)O)n4)CC3(C)C)oc12 [Example I-479] | 0.0002 | 0.0003 | 1.5 | 1.03 | – | – | – | – |
| CC(C)(C)c1cc(N2CCC(C(F)(F)F)CC2)nc2cc(C(=O)N3CCN(C(=O)[C@H]4C[C@](C)(O)C4)CC3(C)C)oc12 [Example I-437] | 0.0064 | 0.0078 | > 2 | > 2 | – | – | – | – |
| Cc1nnc(C(=O)N2CCN(C(=O)c3cc4nc(-c5ccc(Cl)cc5)cc(C(C)(C)C)c4o3)C(C)(C)C2)o1 [Example I-179] | – | – | > 1 | > 1 | 0.0028 | 0.0055 | – | – |
| Cc1ccnc(N2CCN(C(=O)c3cc4nc(-c5ccc(Cl)cc5)cc(C(C)(C)C)c4o3)C(C)(C)C2)n1 [Example I-403] | 0.023 | 0.024 | > 2 | > 2 | – | – | – | – |
| CC(C)(C)c1cc(-c2ccc(F)cc2)nc2cc(C(=O)N3CCN(C(=O)c4ccccn4)CC3(C)C)oc12 [Example I-185] | – | – | > 1 | > 1 | 0.0012 | 0.0051 | – | – |
| CC1(C)CCC(c2cc(C(C)(C)C)c3oc(C(=O)N4CCNC(=O)C4(C)C)cc3n2)CC1 [Example I-217, 4-[7-tert-butyl-5-(4,4-dimethylcyclohexyl)furo[3,2-b]pyridine-2-carbonyl]-3,3-dimethyl-piperazin-2-one] | – | – | > 2 | > 2 | 0.013 | 0.022 | – | – |
| CC(C)(C)c1cc(-c2ccc(F)cc2)nc2cc(C(=O)N3CCN(C(=O)C4(C(=O)O)CC4)CC3(C)C)oc12 [Example I-193] | – | – | > 1 | > 1 | 0.26 | 0.19 | – | – |
| Cc1cnc(N2CCN(C(=O)c3cc4nc(-c5ccc(Cl)c(F)c5)cc(C(C)(C)C)c4o3)C(C)(C)C2=O)nc1 [Example I-371] | 0.0052 | 0.0052 | – | – | – | – | > 2 | > 2 |
| CC1(c2cc(-c3ccc(F)cc3)nc3cc(C(=O)N4CCN(C(=O)C(O)C5CC5)CC4(C)C)oc23)CC1 (stereo not shown) [Example I-31] | – | – | > 50 | > 50 | 17 | 21 | – | – |
| CC1(C)CCC(c2cc(C(C)(C)C)c3oc(C(=O)N4CCN(C(=O)c5ccc(C(=O)O)cn5)CC4(C)C)cc3n2)CC1 [Example I-379] | 0.026 | 0.056 | > 2 | > 2 | – | – | – | – |
| CO[C@H](C)C(=O)N1CCN(C(=O)c2cc3nc(-c4ccc(F)cc4)cc(C4(C)CC4)c3o2)C(C)(C)C1 [Example I-29] | – | – | 19 | 16 | 0.023 | 0.032 | – | – |
| CC(C)C[C@@H](O)C(=O)N1CCN(C(=O)c2cc3nc(-c4ccc(F)cc4)cc(C4(C)CC4)c3o2)C(C)(C)C1 [Example I-36] | – | – | 31 | > 26 | 0.00097 | 0.0015 | – | – |
| Cc1ccc(-c2cc(C(C)(C)C)c3oc(C(=O)N4CCNC(=O)C4(C)C)cc3n2)cc1 [Example I-165] | – | – | > 1 | > 1 | 0.016 | 0.019 | – | – |
| CC1(C)CCC(c2cc(C(C)(C)C)c3oc(C(=O)N4CCN(c5nccc(C(=O)O)n5)CC4(C)C)cc3n2)CC1 [Example I-455] | 0.0012 | 0.0024 | 0.45 | 0.415 | – | – | – | – |
